Laboratory results from publication PMC8192908 (Scientific Reports, 2021).
Like-named read-outs stand apart in the source and are kept apart here. Marks after values point to notes of the source that are not given here.

Legend:
PDE4A = molecular target: T1, PDE4A (Homo sapiens, UniProt P27815); assay: ITC binding of PTX to the catalytic domain of PDE4A
T1 construct: Catalytic domain of each protein was cloned between BamHI and XhoI restriction sites in; 6xHis-SUMO (N, cleaved yes); made in house; host or cells: E. coli Rosetta 2 (DE3)
T1 sequence (P27815 357-686 limits assumed): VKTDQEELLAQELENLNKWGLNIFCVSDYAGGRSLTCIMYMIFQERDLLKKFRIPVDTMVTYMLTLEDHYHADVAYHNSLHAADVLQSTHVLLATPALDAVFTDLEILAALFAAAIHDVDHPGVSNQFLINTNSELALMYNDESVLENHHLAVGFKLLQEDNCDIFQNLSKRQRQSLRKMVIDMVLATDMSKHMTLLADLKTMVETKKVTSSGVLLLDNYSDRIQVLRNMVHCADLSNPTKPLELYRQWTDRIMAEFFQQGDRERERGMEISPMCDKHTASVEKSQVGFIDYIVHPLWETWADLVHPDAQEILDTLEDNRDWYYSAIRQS
Excerpt: (§1) Supplementary Materials and Methods
(§2) Cloning, expression and purification of catalytic domains of PDE4A, […]
(§3) The full length human PDE4A (1005 bp), PDE4D (981 bp) and PDE10A (957 bp) cDNAs, cloned in pET28a(+) expression vector, were purchased from Biomatik, Canada.
(§4) Catalytic domain of each protein was cloned between BamHI and XhoI restriction sites in 6x-His-SUMO-tagged bacterial expression vector. The catalytic domain constructs of PDE4A, PDE4D and PDE10A were transformed in E. coli Rosetta 2 (DE3) competent cells for expression. After growing the transformed cells at 37 °C, till the OD 600nm reached 0.5-0.7, the culture containing constructs of PDE4A and PDE4D were induced with 0.1 mM IPTG and the cultures were incubated at 15 °C for 16-18 h, whereas those with PDE10A constructs were induced with 0.5 mM at incubated for 35 -40 h followed by cell harvesting. Harvested cells were suspended in lysis buffer (500 mM NaCl, 50 mM Tris - Cl pH 8.0, 10 mM Imidazole, 3 mM β-mercaptoethanol) and lysed by sonication (Qsonica). The lysates were cleared by centrifugation at 20,000g for 1h and supernatant was passed through Ni-NTA affinity column (His-Trap, GE Healthcare). Eluted proteins were subjected to salt exchange with a buffer containing 100 mM NaCl, 50 mM Tris-Cl pH 8.0, 3 mM β-mercaptoethanol. The collected proteins were further purified using ion - exchange chromatography (Q column, Hi-Trap, GE Healthcare) followed by overnight treatment with ULP1 at 4 °C to cleave 6xHis-SUMO tag. The tag was separated from proteins by a subsequent Ni-NTA purification. The proteins were further purified on size exclusion 16/600 200 pg column (GE Healthcare) pre-equilibrated with a buffer (100 mM […]
(§5) NaCl, 50 mM Tris pH 8.0, 5% Glycerol, 3 mM β-mercaptoethanol). After purifying with a gel filtration column, purity was determined on 12% SDS -PAGE and all three proteins […]
(§6) concentrated to 20mg/ml, flash cooled with liquid nitrogen and stored at -80°C.
(§7) Isothermal titration calorimetry (ITC) binding studies […]
(§8) of PDE4A, PDE4D and PDE10A were determined at 25°C, using Affinity ITC (TA instruments). […]

mouse bone marrow cells = details: cited from earlier work
[1] = test system: spermatozoa from asthenozoospermic semen samples; assay: Sperm kinematics by computer assisted semen analysis (CASA); type: cell-based, human; details: 1 h after incubation; PTX 1 mM, PTXm-1 0.25 mM; mean ± SE, N = 28
Method: (§9) For the study, subjects with 2–7 days of sexual abstinence were asked to provide their ejaculates by masturbation. After the completion of semen analysis (WHO, 2010), the leftover semen sample from each subject was used for experiment within 1 h of collection and was equally divided into four groups. The semen samples were washed twice with EBSS media (with bicarbonate buffer) by centrifuging at 500 g for 8 min to remove the seminal plasma. […] The EBSS medium used was with bicarbonate buffer. The samples were incubated for 1 h at 37 °C and 5% CO2. The overlay containing motile fraction of capacitated spermatozoa were collected carefully without disturbing the pellet and used for further analysis. The swim-up fraction containing motile spermatozoa were assessed for motility using manual method and sperm motion characteristics using computer assisted sperm analysis (CASA) as described earlier. […] Percentage of spermatozoa with total and progressive motility was calculated. For CASA, 8 µL sperm suspension was placed on a clean microscopic slide, covered with coverslip (18 mm × 18 mm).

PDE4D = molecular target: T2, PDE4D (Homo sapiens, UniProt Q08499); assay: ITC binding of PTX to the catalytic domain of PDE4D
T2 construct: Catalytic domain of each protein was cloned between BamHI and XhoI restriction sites in; 6xHis-SUMO (N, cleaved yes); made in house; host or cells: E. coli Rosetta 2 (DE3)
T2 sequence (Q08499 386-715 limits assumed): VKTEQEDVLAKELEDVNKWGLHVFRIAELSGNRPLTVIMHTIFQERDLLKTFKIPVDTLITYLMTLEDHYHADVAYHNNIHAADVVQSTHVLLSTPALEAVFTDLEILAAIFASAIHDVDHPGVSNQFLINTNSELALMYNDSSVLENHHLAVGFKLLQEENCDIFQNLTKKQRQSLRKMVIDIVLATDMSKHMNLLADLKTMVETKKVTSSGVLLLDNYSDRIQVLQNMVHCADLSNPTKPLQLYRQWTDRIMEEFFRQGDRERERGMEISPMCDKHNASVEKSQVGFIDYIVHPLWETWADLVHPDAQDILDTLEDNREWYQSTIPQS
Excerpt: as §1, §2, §3, §4, §5, §6, §7, §8

[2] = test system: intracellular cAMP in spermatozoa; assay: Intracellular cAMP in spermatozoa; type: cell-based, human; details: 1 h after incubation; PTX 1 mM, PTXm-1 0.25 mM
Method: Sperm suspension was centrifuged at 800 g for 10 min and supernatant obtained was frozen at − 80 °C until further analysis. The cAMP level was measured using cAMP test kit as explained by the manufacturers (Elabscience®, Cat. No. E-EL-0056) as described in our earlier report. Briefly, 50 μL of cAMP detection standard or test samples were added to each well of the multi well plate, followed by addition of biotinylated detection solution (50 μL). After 45 min of incubation at 37 °C, the solutions from each well were decanted. The wells of the plate were further washed 3 times using wash buffer and then incubated with 100 μL horse radish peroxidase (HRP) conjugate for 30 min at 37 °C. Further, each well of the multi well plate was washed repeatedly (5 times) and then incubated with 90 μL substrate reagent for 15 min at 37 °C. Finally, the reaction was stopped by adding 50 μL of stop solution and, immediately OD450nm of the each well was measured using Skanit software 5.0 (Multiskan, Photometer, Thermoscientific). The assay was performed in duplicates and standard curve was plotted. The concentration of cAMP was extrapolated from the standard curve.

ejaculated spermatozoa = assay: Sperm motility in ejaculated spermatozoa (swim-up, manual assessment); type: cell-based, human; details: PTXm-1 0.25 mM; for progressive motility vs controls / total motility vs controls: 1 h; for progressive motility vs controls / total motility vs controls / percentage of total motile spermatozoa vs controls: PTX 1 mM; for percentage of total motile spermatozoa vs controls: 1 h and 24 h
Method: as §9

[3] = test system: spermatozoa from normozoospermic samples; assay: Sperm DNA integrity by TUNEL assay; details: 24 h in vitro incubation; PTX 1 mM, PTXm-1 0.25 mM; control 6.5%
human lymphocytes cells = details: cited from earlier work
[4] = asthenozoospermic samples, 24 h

| Structure (SMILES) | ALH [1] | BCF [1] | LIN [1] | VAP [1] [µm/s] | VCL [1] | VSL [1] [µm/s] | WOB [1] | intracellular cAMP level vs control and vehicle control [2] | progressive motility vs controls (ejaculated spermatozoa; asthenozoospermic samples) | total motility vs controls (ejaculated spermatozoa; asthenozoospermic samples) | percentage of total motile spermatozoa vs controls (ejaculated spermatozoa; normozoospermic samples) | also measured |
| --- | --- | --- | --- | --- | --- | --- | --- | --- | --- | --- | --- | --- |
| CC(=O)CCCCn1c(=O)c2c(ncn2C)n(C)c1=O [PTX, pentoxifylline] | 5.04 ± 0.06^b µm | 8.56 ± 0.17 Hz | 28.47 ± 1.01 | 47.89 ± 0.96 | 112.60 ± 3.10^b µm/s | 28.34 ± 4.67 | 42.54 ± 0.61^b | significantly higher | significantly higher | significantly higher | increased | change in enthalpy (ΔH) (PDE4A): ~ -8.3±0.30 kcal/mol; change in entropy (ΔS) (PDE4A): ~ -11.90 cal/mol.K; stoichiometry (N) (PDE4A): ~ 1.08±0.03; cytotoxic effect on mouse bone marrow cells (mouse bone marrow cells): do not have any cytotoxic effect; STR [1]: 66.94 ± 0.98^b,c; change in enthalpy (ΔH) (PDE4D): ~ -10.56±1.07 kcal/mol; change in entropy (ΔS) (PDE4D): ~ -16.47 cal/mol.K; stoichiometry (N) (PDE4D): ~ 0.93±0.07; spermatozoa with damaged DNA (TUNEL) [3]: 10.25% |
| COc1ccc2cc(/C=C/C(=O)CCCCn3c(=O)c4c(ncn4C)n(C)c3=O)ccc2c1 [PTXm-1] | 5.21 ± 0.09^b µm | 9.67 ± 0.19^b,c,d Hz | 27.78 ± 1.02 | 45.90 ± 0.97 | 109.6 ± 3.27^a µm/s | 27.67 ± 3.79 | 41.87 ± 0.70^b | significantly higher | significantly higher | significantly higher | increased | genotoxic effect on human lymphocytes cells in vitro (human lymphocytes cells): significantly lower genotoxic effect; cytotoxic effect on mouse bone marrow cells (mouse bone marrow cells; mouse, in vivo): do not have any cytotoxic effect; percentage of progressively motile spermatozoa vs PTX (ejaculated spermatozoa; [4]): considerably (P < 0.001) higher percentage; percentage of total motile spermatozoa vs PTX (ejaculated spermatozoa; [4]): considerably (P < 0.001) higher percentage; percentage of progressively motile spermatozoa vs C, VC and PTX (ejaculated spermatozoa; normozoospermic samples, 24 h): higher percentage of progressively motile spermatozoa |
